Values joined by “and” are separate entries in the source; they are usually repeats but may differ in a detail not shown here. Equal values may be shown once.
Columns and labels:
TIMP1 = assay: Stem cell chondrogenesis, real time PCR gene expression: TIMP1; format: cell-based, human; details: Day 22; for Mean ΔCp / ΔCp: TIMP1 vs Actin
Protocol: (§1) • Stem Cells: Bone marrow derived human mesenchymal stem cells: Passage 5 Bone marrow derived human mesenchymal stem cells (HUXMA-01001, Cyagen Biosciences, Sunnyvale Calif.) • Mesenchymal Stem Cell Chondrogenic Differentiation medium (GUXMX-90041, Cyagen Biosciences, Sunnyvale Calif.) • TheraPEAK MSCGM chemically defined Stem cell medium (190632 Lonza) • 1 mM Dexamethasone acetate and mifepristone in absolute ethanol (Sigma) • Saline or 0.9% Sodium chloride for injection ZR Flush (Excelsior Medical, Neptune N.J.) • Sterile filtered 0.6 mM sodium caprylate in saline (sigma) • Sterile filtered 3 mM NAT in saline (sigma); To prepare, heat at 60° C. for 30 minutes then sonicate for 5 minutes. • Sterile filtered 10 mM DADKP in saline • 0.2 μM syringe filters • Hepes buffered saline, Trypsin/EDTA, Trypsin neutralizing solution (Lonza reagent pack) • 182 cm2 tissue culture flasks • pipettes and sterile tips • Tissue culture hood, humidified CO2 incubator, water or bead bath • 24 well tissue culture plates • Qiagen RNeasy plus spin columns (Qiagen 74134) • Qiagen RT2 qPCR primer pairs for Collagen 2A1, MMP13, TIMP1, Aggrecan, GAPDH, and Actin B • Roche Sybr green I master mix and Invitrogen Superscript VILO master mix. • Roche 480 lightcycler
(§2) The following stock drug treatment solutions were prepared in saline for injection and warmed to 37° C. in bath: • 4 μM dexamethasone • 4 μM mifepristone • 3 mM NAT • 0.6 mM caprylate • 80 μM DADKP • Mix of 3 mM NAT, 0.6 mM caprylate, 80 μM DADKP (“Ampion” mix)
(§3) Cyagen Chondrogenic Differentiation medium was prepared by manufacturer protocols but excluding dexamethasone and TGF beta 3 supplements, and warmed to 37° C. in bath.
(§4) The treatment protocol included expanding 5 HUXMA stem cells in 182 cm^2 flasks containing 40 mls TheraPEAK™ MSCGM to 80-90% confluence. Cells were trypsinized from the flasks and a 1.0×10^7 cell suspension of HUXMA stem cells was warmed in Cyagen Chondrogenic Differentiation medium. 20 μl of warmed cell suspension was spotted in the middle of each well of a 24-well tissue culture plate (200,000 cells per spot), and incubated at 37° C. and 5% CO2 for one hour.
(§5) The plates were removed from the incubator and an additional 720 μl chondrogenic medium was added to each well. 250 μl saline, or drug solutions were added to the appropriate wells in triplicate (bringing the final drug dilution to one-quarter of the stock drug treatment solution concentrations). 10 μl of TGF beta 3 solution (supplied by Cyagen) was added to each well, and the plates were returned to the incubator.
(§6) RNA isolation and analysis was conducted for all plates as follows at days 7, 14, and 22 post treatment (with the described medium exchanges). […] Qiagen RNeasy plus lysis buffer (with 2mercaptoethanol) was added to each well and gently shaken for 10 minutes. The lysed cell suspensions from each well were transferred to Qiashredder columns and spun at 14,000 rpm for 2 minutes. RNA isolation proceeded by RNeasy™ plus manufacturer's protocol. RNA was eluted from the Qiagen columns using 25 μl RNase free water.
(§7) cDNA synthesis and real time PCR was conducted as follows. First strand synthesis of cDNA from all samples was performed in 20 μl total volume using 10 μl isolated RNA. All cDNA reactions were then diluted with 30 μl nuclease free water. Real time PCR was then performed using 5 μl diluted cDNA, Roche Syber green master mix, and Qiagen RT^2 gPCR™ primer pairs in 20 μl total reaction volume. Relative gene expression was determined by delta deta Ct method.

[1] = system: Bone marrow derived human mesenchymal stem cells; assay: Visual observation of cell aggregates in chondrogenic culture; format: cell-based; details: day seven
Aggrecan = assay: Stem cell chondrogenesis, real time PCR gene expression: Aggrecan; format: cell-based, human; details: for Mean ΔCp / ΔCp: Aggrecan vs Actin; for Mean ΔCp / ΔCp / Cp Agg / Mean regulation: Day 22; for Cp Agg / Mean regulation: Aggrecan; for Mean regulation: vs saline
Protocol: as §1, §2, §3, §4, §5, §6, §7

SOX9 = assay: Stem cell chondrogenesis, real time PCR gene expression: SOX9; format: cell-based, human; details: Day 14
Protocol: The treatment protocol included expanding 5 HUXMA stem cells in 182 cm^2 flasks containing 40 […] to 80-90% confluence. Cells were trypsinized from the flasks and a 1.0×10^7 cell suspension of HUXMA stem cells was warmed in Cyagen Chondrogenic Differentiation medium. 20 μl of warmed cell suspension was spotted in the middle of each well of a 24-well tissue culture plate (200,000 cells per spot), and incubated at 37° C. and 5% CO2 for one hour. […] Medium exchanges were performed every 3-4 days by aspirating the medium from the wells and replacing with fresh chondrogenic medium, diluted stocks, and TGF beta 3, as described above. […] Medium from the wells was removed and saved for further protein analysis. Qiagen RNeasy plus lysis buffer (with 2mercaptoethanol) was added to each well and gently shaken for 10 minutes. The lysed cell suspensions from each well were transferred to Qiashredder columns and spun at 14,000 rpm for 2 minutes. RNA isolation proceeded by RNeasyTM plus manufacturer's protocol. RNA was eluted from the Qiagen columns using 25 μl RNase free water. cDNA synthesis and real time PCR was conducted as follows. First strand synthesis of cDNA from all samples was performed in 20 μl total volume using 10 μl isolated RNA. All cDNA reactions were then diluted with 30 μl nuclease free water. Real time PCR was then performed using 5 μl diluted cDNA, Roche Syber green master mix, and Qiagen RT^2 gPCRTM primer pairs in 20 μl total reaction volume.

MMP13 = assay: Stem cell chondrogenesis, real time PCR gene expression: MMP13; format: cell-based, human; details: for Mean regulation: vs saline; for Mean ΔCp / ΔCp: MMP13 vs GAPDH
Protocol: as §1, §2, §3, §4, §5, §6, §7

Collagen 2A1 = assay: Stem cell chondrogenesis, real time PCR gene expression: Collagen 2A1; format: cell-based, human; details: for Cp Coll / Mean regulation: Collagen 2A1; for Cp Coll / Mean regulation / Mean ΔCp: Day 22; for Mean regulation: vs saline; for Mean ΔCp: Collagen 2A1 vs GAPDH; for regulation, Collagen 2A1 / Mean regulation, Collagen 2A1: fold regulation vs saline; for regulation, Collagen 2A1 / ΔCp, Collagen 2A1 / 2^-ΔΔCp vs saline, Collagen 2A1 / ΔΔCp vs saline, Collagen 2A1: single replicate well; for Mean regulation, Collagen 2A1 / Mean ΔCp, Collagen 2A1: triplicate wells; for ΔCp, Collagen 2A1: human bone marrow MSC, chondrogenic medium + TGF beta 3; for ΔCp, Collagen 2A1 / 2^-ΔΔCp vs saline, Collagen 2A1 / ΔΔCp vs saline, Collagen 2A1 / Mean ΔCp, Collagen 2A1: vs Actin
Protocol: as §1, §2, §3, §4, §5, §6, §7

[2] = vs Actin, single replicate well
[3] = Day 7, vs Actin, single replicate well

SMILES: C[C@@H]1NC(=O)[C@H](CC(=O)O)NC1=O [DADKP, aspartyl-alanyl diketopiperazine]
- Cp TIMP1 (TIMP1; TIMP1, Table 12): 18.64 and 19.9 and 19.36
- 2-^ΔΔCp vs saline (TIMP1; TIMP1, Table 16): 1.7013 and 1.5122 and 1.7613
- Cp TIMP1 (TIMP1; TIMP1, Table 16): 18.64 and 19.9 and 19.36
- Mean regulation (TIMP1; TIMP1, vs saline, Table 12): 1.66
- regulation (TIMP1; TIMP1, vs saline, Table 12): 1.70 and 1.51 and 1.76
- regulation (TIMP1; TIMP1, vs saline, Table 16): 1.70 and 1.51 and 1.76
- Mean ΔCp (TIMP1; Table 12): 3.04
- ΔCp (TIMP1; Table 12): 3 and 3.17 and 2.95
- Mean ΔCp (TIMP1; Table 16): 3.04
- ΔCp (TIMP1; Table 16): 3 and 3.17 and 2.95
- form of the culture (discs or pellets) [1]: pulled into loose pellets
- Mean ΔCp (Aggrecan; Table 12): 7.28
- ΔCp (Aggrecan; Table 12): 9.06 and 6.83 and 5.95
- Mean ΔCp (Aggrecan; Table 16): 7.28
- ΔCp (Aggrecan; Table 16): 9.06 and 6.83 and 5.95
- Cp Agg (Aggrecan; Table 12): 24.7 and 23.56 and 22.36
- Cp Agg (Aggrecan; Table 16): 24.7 and 23.56 and 22.36
- Mean regulation (Aggrecan; Table 12): 10.65
- Mean regulation (Aggrecan; Table 16): 10.65
- increase in transcription of aggrecan (Aggrecan; day 22): 20 fold
- regulation, SOX9 (SOX9; fold regulation vs saline, single replicate well): −1.59 and 1.07 and 1.10
- Mean regulation, SOX9 (SOX9; fold regulation vs saline, triplicate wells): 0.19
- ΔCp, SOX9 (SOX9; human bone marrow MSC, chondrogenic medium + TGF beta 3, vs Actin, single replicate well): 7.85 and 7.08 and 7.04
- 2^-ΔΔCp vs saline, SOX9 (SOX9; [2]): 0.6285 and 1.0718 and 1.1019
- ΔΔCp vs saline, SOX9 (SOX9; [2]): 0.67 and −0.1 and −0.14
- Mean ΔCp, SOX9 (SOX9; vs Actin, triplicate wells): 7.323
- regulation, MMP13 (MMP13; Day 7, fold regulation vs saline, single replicate well): −1.29 and 1.03 and −1.76
- Mean regulation, MMP13 (MMP13; Day 7, fold regulation vs saline, triplicate wells): −0.67
- ΔCp, MMP13 (MMP13; Day 7, human bone marrow MSC, chondrogenic medium + TGF beta 3, vs Actin, single replicate well): 5 and 4.6 and 5.45
- 2^-ΔΔCp vs saline, MMP13 (MMP13; [3]): 0.7774 and 1.0257 and 0.5691
- ΔΔCp vs saline, MMP13 (MMP13; [3]): 0.363 and −0.04 and 0.813
- Mean ΔCp, MMP13 (MMP13; Day 7, vs Actin, triplicate wells): 5.017
- Cp, MMP13 (MMP13; MMP13, Day 22, Table 12): 20.34 and 21.41 and 21.25
- 2^-ΔΔCp vs saline (MMP13; MMP13, Day 22, Table 16): 1.1277 and 1.0163 and 0.9352
- Cp, MMP13 (MMP13; MMP13, Day 22, Table 16): 20.34 and 21.41 and 21.25
- Mean regulation (MMP13; MMP13, Day 22, Table 12): 0.36
- Mean regulation (MMP13; MMP13, Day 22, Table 16): 0.36
- Mean ΔCp (MMP13; Day 22, Table 12): 2.96
- ΔCp (MMP13; Day 22, Table 12): 2.82 and 2.97 and 3.09
- Mean ΔCp (MMP13; Day 22, Table 16): 2.96
- ΔCp (MMP13; Day 22, Table 16): 2.82 and 2.97 and 3.09
- Cp Coll (Collagen 2A1; Table 12): 27.41 and 25.44 and 22.94
- Cp Coll (Collagen 2A1; Table 16): 27.41 and 25.44 and 22.94
- Mean regulation (Collagen 2A1; Table 12): 136.83
- Mean regulation (Collagen 2A1; Table 16): 136.83
- Mean ΔCp (Collagen 2A1; Table 12): 7.223
- Mean ΔCp (Collagen 2A1; Table 16): 7.223
- regulation, Collagen 2A1 (Collagen 2A1; Day 7): 1.65 and −2.28 and −1.25
- Mean regulation, Collagen 2A1 (Collagen 2A1; Day 7): −0.62
- ΔCp, Collagen 2A1 (Collagen 2A1; Day 7): 6.01 and 7.92 and 7.05
- 2^-ΔΔCp vs saline, Collagen 2A1 (Collagen 2A1; Day 7): 1.651 and 0.4393 and 0.8029
- ΔΔCp vs saline, Collagen 2A1 (Collagen 2A1; Day 7): −0.72 and 1.187 and 0.317
- Mean ΔCp, Collagen 2A1 (Collagen 2A1; Day 7): 6.993
- regulation, Collagen 2A1 (Collagen 2A1; Day 14): 1.48 and 2.56 and −1.02
- Mean regulation, Collagen 2A1 (Collagen 2A1; Day 14): 1.01
- ΔCp, Collagen 2A1 (Collagen 2A1; Day 14): 10.49 and 9.7 and 11.09
- 2^-ΔΔCp vs saline, Collagen 2A1 (Collagen 2A1; Day 14): 1.4811 and 2.5609 and 0.9772
- ΔΔCp vs saline, Collagen 2A1 (Collagen 2A1; Day 14): −0.57 and −1.36 and 0.033
- Mean ΔCp, Collagen 2A1 (Collagen 2A1; Day 14): 10.43
- collagen transcription (in words) (Collagen 2A1; day 22): greatly enhanced
- increase in transcription of Collagen 2a1 (Collagen 2A1; day 22): 2000 fold
- collagen transcription (in words) (Collagen 2A1; day fourteen, compared with the control in a pellet): still elevated
